Assay results reported in patent publication US20250177353A1 (priority 2021, published 2025).
Read-outs that look alike come from different tables or passages of the source.

Legend:
[1] = SAD phase I study: plasma pharmacokinetics of 2,4-dinitrophenol after Compound 1 (Table 3); assay type: in vivo, human; settings: for Vd/F: 500 mg, read-out: Vz/F, Median
Experimental: A double-blind, placebo-controlled, phase I study of the safety and pharmacokinetics of single ascending doses of compound 1 in healthy volunteers was conducted. The volunteers were orally administered Compound 1 in doses ranging from 30 mg once daily (QD) to 1400 mg QD in a total of 67 subjects (50 active/17 placebo) across 8 cohorts.
Screening procedures occurred on Days -28 to -3. For all Cohorts except Cohort 4 (Fed/Fasted), subjects were admitted to the clinical research unit for up to 4 days. […] Following completion of all safety assessments and blood draws for PK analyses, subjects were discharged on Day 3. The Fed/Fasted cohort remained in the unit and were discharged on Day 7.
Double-blind dosing occurred in cohorts 1 through 8. In these cohorts, six subjects received Compound 1 and two received matching placebo. Doses escalated in the following sequence: 30, 100, 200, 500, 1400, 1050 and 600 mg. • Cohort 4 crossed-over to a fed state (50% fat meal) administration after pharmacokinetics and an inpatient washout had occurred for 72 hours after the first dose with a final dose.
Subjects were admitted to the clinical research unit on Day 1. […] Blood draws for assessment of PK parameters occurred per schedule of assessments. IC were taken per schedule of assessments. Subjects were released on Day 3 following completion of all blood draws and safety assessments. The Fed/Fasted cohort remained in the unit and was discharged on Day 7.
Compound 1 or matching placebo was administered orally as a single dose. All subjects except the fed cohort, were dosed in the morning after an 8-hour fast and remained in a semi-reclined position for 1 hour and fasting for 4 hours post-administration. Capsules were swallowed with 240 mL (8 fluid ounces) of room temperature water.
Cohort 4 was a crossover food effect analysis. Subjects enrolled in Cohort 4 were dosed 30 minutes following the beginning of a standardized (consisting of 50% fat) meal (following a 10-hour fast) to evaluate for food effects. The study drug was administered with room temperature 240 mL (8 fluid ounces) of water.

[2] = MAD study: 2,4-dinitrophenol pharmacokinetics (accumulation, steady state); assay type: in vivo, human; settings: MAD cohort 1
Experimental: A double-blind, sponsor-open, placebo-controlled, phase I study of the safety, pharmacokinetics and pharmacodynamics of multiple ascending doses of Compound 1 in high MBI volunteers was conducted. The first cohort of 10 healthy high body mass index (BMI) subjects has completed dosing at 200 mg Compound 1. Two more cohorts are also planned at doses of 400 and 550 mg QD.
With once daily dosing, significant accumulation of 2,4-dinitrophenol is anticipated at steady state.

[3] = cited from earlier work
[4] = human, in vivo, 500 mg
[5] = single dose 30 mg Compound 1, Fasted
[6] = single dose 100 mg Compound 1, Fasted
[7] = single dose 200 mg Compound 1, Fasted
[8] = single dose 500 mg Compound 1, Fasted
[9] = single dose 500 mg Compound 1, Fed
[10] = single dose 600 mg Compound 1, Fasted, Micronized
[11] = single dose 1050 mg Compound 1, Fasted
[12] = single dose 1050 mg Compound 1, Fasted, Micronized
[13] = single dose 1400 mg Compound 1, Fasted, Micronized

## O=[N+]([O-])c1ccc(O)c([N+](=O)[O-])c1 [2,4-dinitrophenol]
[1]; human, oral, single dose 500 mg Compound 1, Fasted
  Vd/F: 735 L
[1]; human, oral, single dose 500 mg Compound 1, Fed
  Vd/F: 269 L
[1]; human, oral, single dose 500 mg Compound 1, Fed, read-out: AUCinf, Median
  AUC(0-inf): 83800 ng·h/mL
[1]; human, oral, single dose 500 mg Compound 1, Fed, read-out: t1/2, Median (converted)
  half-life: 31.2 h
[1]; [5]
  AUC0/24 h, Geometric Mean: 1440 ng·h/mL
  AUC0/24 h, Mean (SD): 1500 (448) h*ng/ML
  AUC0/24 h, Median: 1500 ng·h/mL
  CL/F, Geometric Mean: 7.44 L/h
  CL/F, Mean (SD): 8.04 (3.39) L/h
  CL/F, Median: 9.84 L/h
[1]; [6]
  AUC0/24 h, Geometric Mean: 4660 ng·h/mL
  AUC0/24 h, Mean (SD): 4710 (711) h*ng/ML
  AUC0/24 h, Median: 4820 ng·h/mL
  CL/F, Geometric Mean: 7.61 L/h
  CL/F, Mean (SD): 7.75 (1.70) L/h
  CL/F, Median: 7.87 L/h
[1]; [7]
  AUC0/24 h, Geometric Mean: 11100 ng·h/mL
  AUC0/24 h, Mean (SD): 11200 (1970) h*ng/ML
  AUC0/24 h, Median: 10900 ng·h/mL
  CL/F, Geometric Mean: 6.12 L/h
  CL/F, Mean (SD): 6.35 (1.79) L/h
  CL/F, Median: 7.19 L/h
[1]; [8]
  AUC%extrap, Median: 12.2%
  AUCinf/D, Median: 62.4 ng·h/mL/mg
  CL/F, Geometric Mean: 16.5 L/h
  CL/F, Mean (SD): 17.7 (7.65) L/h
  CL/F, Median: 16.4 L/h
[1]; [9]
  AUC%extrap, Median: 6.56%
  AUCinf/D, Median: 168 ng·h/mL/mg
  CL/F, Median: 5.97 L/h
  λz, Median: 0.0222 h⁻¹
[1]; [10]
  CL/F, Geometric Mean: 2.80 L/h
  CL/F, Mean (SD): 3.20 (1.62) L/h
  CL/F, Median: 2.74 L/h
[1]; [11]
  CL/F, Geometric Mean: 15.2 L/h
  CL/F, Mean (SD): 16.8 (7.60) L/h
  CL/F, Median: 18.3 L/h
[1]; [12]
  CL/F, Geometric Mean: 2.20 L/h
  CL/F, Mean (SD): 2.33 (0.715) L/h
  CL/F, Median: 2.50 L/h
[1]; [13]
  CL/F, Geometric Mean: 3.96 L/h
  CL/F, Mean (SD): 4.12 (1.43) L/h
  CL/F, Median: 3.60 L/h
[2]; Compound 1 200 mg QD for 14 days
  dose accumulation factor: approximately 3.5 fold
[2]; Compound 1 200 mg daily dosing
  time to steady-state: 7 days
[3]; 2,4-dinitrophenol once daily 1-3 months (Tainter, Simkins)
  increase in RMR: 20-40%
[3]; 2,4-dinitrophenol once daily 1-3 months
  weight loss: 1.4-2.1 lbs./week
[3]; 2,4-dinitrophenol once daily over 1-3 months
  tolerability: well tolerated
[3]; humans (Zhao 2015)
  2,4-dinitrophenol concentrations associated with adverse increases in body temperatures: greater than 28,000 ng/ml
[4]
  AUC increase under fed conditions relative to fasted conditions: > 2.0 fold
  Cmax increase under fed conditions relative to fasted conditions: > 1.8 fold
